Measurements as given in patent US6586596B2, “Acetylcholine enhancers” (priority 1998, dated 2003).

Columns and labels:
[1] = system: cycloheximide-induced amnesia; test: Passive avoidance, cycloheximide-induced memory impairment; format: in vivo, male Wistar rats; settings: oral, 30 minutes before acquisition trial; cycloheximide 1.5 mg/kg s.q.
Experimental: (§1) Cutoff latency was set at 600 seconds.
Rats were treated s.q. with cycloheximide (1.5 mg/kg), a protein synthesis inhibitor, immediately after the electric shock.

[2] = system: extracellular levels of ACh in striatum; test: ACh release in striatum, microdialysis in freely moving rats; format: in vivo; settings: for ACh content in perfusate increased up to: striatum, young rats (2 month-old Wistar)
Experimental: ACh content in perfusate obtained from striatum (Bregma, A: 0.2 mm, L: 3.0 mm, H: 4.0 mm) of brain were continuously detected by means of HPLC and ECD through the microdialysis system using freely moving rats. See Messamore, E., et al, 32 Neuropharmacol. […] After an equilibration period of more than 2 hours, five fractions were allowed to obtain basal ACh content. Compounds were injected i.p., and thereafter, a microdialytic analysis was conducted for 3 hours.

[3] = system: scopolamine-induced amnesia; test: Passive avoidance, scopolamine-induced memory impairment; format: in vivo, male Wistar rats; settings: 0.1, 0.3 and 3.0 mg/kg oral, 30 minutes before acquisition trial; scopolamine 0.5 mg/kg i.p.
Experimental: as §1
Rats were treated i.p. with scopolamine (0.5 mg/kg) 15 minutes before the acquisition trial.

[4] = system: SEP-lesioned rats; test: Eight-arm radial maze, medial septal nucleus (SEP) lesion-induced deficit; format: in vivo, male Wistar rats; settings: 3.0 mg/kg/day, repeated treatment for 2 weeks
Experimental: Using male Wistar rats, the anti-amnestic effects of Cm.A on spatial cognition was evaluated using an eight-arm radial maze task. After repeated trials for spatial cognition, memory-established rats (which had more than 7 correct choices and less than one error) were utilized.
SEP (Bregma, A: 0.2 mm, L: −1.0 mm, H: −5.8 mm) was lesioned by microinjection with ibotenic acid (10 μg) similarly to that of the BF lesion of Example 4A(3).

[5] = system: extracellular levels of ACh in hippocampus; test: ACh release in hippocampus, microdialysis in freely moving rats; format: in vivo; settings: for ACh content in perfusate increased: hippocampus
Experimental: ACh content in perfusate obtained from hippocampus (Bregma, A: −5.8 mm, L: 5.0 mm, H: 4.0 mm) of brain were continuously detected by means of HPLC and ECD through the microdialysis system using freely moving rats (See Messamore and Kawashima, supra). After an equilibration period, five fractions were allowed to obtain basal ACh content. Test substances were injected i.p., and thereafter, microdialytic analysis was conducted for 3 hr.

[6] = target: T1, peripheral 5-HT3 receptor (Rattus norvegicus, UniProt P35563); test: 5-HT-evoked von Bezold-Jarish Effect (B.J.E.) in anesthetized rats; format: in vivo; settings: Cm.A 3 to 10 mg/kg
T1 construct: from tissue; host or cells: whole anesthetized rat (peripheral receptors)
T1 sequence (P35563 24-483): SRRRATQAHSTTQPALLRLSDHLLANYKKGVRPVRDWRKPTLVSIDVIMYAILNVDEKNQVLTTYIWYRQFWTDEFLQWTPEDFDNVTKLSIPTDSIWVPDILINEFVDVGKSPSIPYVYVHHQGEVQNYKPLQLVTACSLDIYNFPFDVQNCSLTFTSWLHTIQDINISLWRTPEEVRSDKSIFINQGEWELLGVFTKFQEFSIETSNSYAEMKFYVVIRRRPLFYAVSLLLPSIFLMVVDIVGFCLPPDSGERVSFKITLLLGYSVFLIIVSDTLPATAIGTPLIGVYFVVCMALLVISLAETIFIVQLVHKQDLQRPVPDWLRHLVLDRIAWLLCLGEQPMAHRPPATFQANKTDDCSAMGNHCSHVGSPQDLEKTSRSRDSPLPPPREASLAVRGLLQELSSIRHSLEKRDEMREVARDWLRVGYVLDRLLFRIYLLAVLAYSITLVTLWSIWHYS
Experimental: A bolus i.v. injection of serotonin (5-HT) (20 μg/kg) caused reflex bradycardia transiently (von Bezold—Jarish Effect: B.J.E.) via activation of peripheral 5-HT3 receptor in anesthetized rats.

[7] = system: scopolamine-induced spatial learning deficit; test: Water maze, scopolamine-induced deficit in spatial learning; format: in vivo, rats; settings: p.o. 60 minutes before each trial; Cm.A 1.0 mg/kg/day; scopolamine 0.5 mg/kg i.p.
Experimental: A total of 6 trials (2 trials on 1st day, and 1 trial after 2nd day) were conducted to observe the effects of the test compounds. Scopolamine (0.5 mg/kg, i.p.) and the test compounds (p.o.) were administered 30 and 60 minutes before each trial, respectively.

[8] = system: aged rats (22 month-old); test: Water maze, aged rats; format: in vivo, male Fischer 344 rats
Excerpt: As compared with young rats, aged rats (22 month-old) were unable shorten the escape latency period. Even after the 11th trial, only a partial decrease in the latency period was evident in the aged rats.

[9] = target: T2, 5HT3 receptor (Rattus norvegicus, UniProt P35563); test: Ex vivo binding of 5HT3 receptors, (3H)-zacopride autoradiography of brain sections; format: in vivo, Sprague-Dawley rats; settings: 10 mg/kg i.p., 30 minutes, amygdala, 0.5 nM (3H)-zacopride
T2 construct: from tissue; host or cells: rat brain sections (amygdala)
T2 sequence (P35563 24-483): T1 sequence (P35563 24-483)
Experimental: Animals (Sprague-Dawley rats) were injected intraperitoneally with 10 mg/kg Cm. A (in 90% ethanol, 10% water, vehicle) (n=3) or vehicle (n=3). After thirty minutes animals were sacrificed and brains were rapidly dissected and frozen in isopentane maintained at −42° C. Sections (horizontal and coronal) were prepared on a cryostat and maintained at −20° C.
Brain sections were removed from storage and thawed at room temperature for 30 minutes. Total 5HT3 receptor binding was measured in sections incubated with 0.5 nM (^3H)-zacopride (Amerhsam; zacorpide is a 5-HT3 selective ligand) in 50 mM HEPES/TRIS buffer. Nonspecific binding was determined in adjacent sections incubated in the presence of radioligand and 500 nM 5-HT. After a 10 minute incubation at room temperature, sections were washed in icecold buffer (2×1 minute) followed by a 10 second rinse in ice-cold distilled water. Sections were then dried in a stream of cold air overnight. After drying, sections were exposed to x-ray film (Kodak Hyperfilm) and exposed for 4 months.
Autoradiograms were quantified using an automated image analysis system, DAGE camera IMAGE software. Mean optical density measurements were obtained from four individual measurements per group, control (vehicle injected) and Cm. A; background measurements were obtained from an area of x-ray on which no tissue was exposed. […]

## COc1c2c(nc3ccccc13)CN(CCC1CCN(Cc3ccccc3)CC1)C2=O [Cm.A, 2-[2-(1-benzylpiperizin-4-yl)ethyl]-2,3-dihydro-9-methoxy-1H-pyrrolo[3,4-b]quinolin-1-one hemifumarate]
[1]
  latency in retention trial, cycloheximide-induced amnesia: prolonged the shortened latency induced by cycloheximide in a nondose dependent manner
[2]; striatum study, young rats, i.p., data not shown
  centrally acting cholinergic symptoms (tremor, chewing and yawning): few centrally acting cholinergic symptoms
[2]; 10 mg/kg i.p.
  ACh content in perfusate increased up to: 131%
[2]; 30 mg/kg i.p.
  ACh content in perfusate increased up to: 369%
[3]
  latency in retention trial, reversal of scopolamine effect: significantly reversed the effect of scopolamine
[4]
  deficit of spatial memory: significantly improved the deficit of spatial memory
[5]; hippocampus study, i.p., data not shown
  centrally acting cholinergic symptoms (tremor, chewing and yawning): Few centrally acting cholinergic symptoms
[5]; 10 mg/kg i.p.
  ACh content in perfusate increased: 164%
[5]; 30 mg/kg i.p.
  ACh content in perfusate increased: 552%
[6]; i.v. pretreatment, E2020 0.1~1 mg/kg, 5-HT 20 μg/kg i.v.
  inhibition of 5-HT-evoked B.J.E. (reflex bradycardia): inhibited B.J.E. dose dependently
[6]; i.v., THA 10 mg/kg, E2020 higher than 1 mg/kg, data not shown
  blood pressure, heart rate and other signs: without any change on blood pressure and heart rate
[7]
  deficit in spatial learning (escape latency): improved the deficit in spatial learning induced by scopolamine
[8]
  deficit of spatial learning (escape latency): gradually improved the deficit of spatial learning to a level nearly equivalent to young rats
[9]
  occupancy of 5HT3 receptor sites within the brain: occupies 5HT3 receptor sites within the brain
